Source: patent US7792665B2, “Method for designing a compound based on the three dimensional structure of phosphoinositide dependent protein kinase 1 (PDK1)” (Medical Research Council, priority 2002, dated 2010)
Substitutions are numbered along the chain they refer to. Where a SMILES comes first, the peptide text is derived from it. [ ]: non-standard residue; d: D form. pT = C[C@@H](OP(=O)(O)O)[C@H](N)C(=O)O

Tests used:
wild type PDK1 = molecular target: T1, wild type PDK1 (Homo sapiens, UniProt O15530); assay: PDK1 catalytic activity towards T308tide, activation by peptides, wild type PDK1; type: biochemical; design: made in house; details: T308tide substrate
T1 sequence (O15530 1-556): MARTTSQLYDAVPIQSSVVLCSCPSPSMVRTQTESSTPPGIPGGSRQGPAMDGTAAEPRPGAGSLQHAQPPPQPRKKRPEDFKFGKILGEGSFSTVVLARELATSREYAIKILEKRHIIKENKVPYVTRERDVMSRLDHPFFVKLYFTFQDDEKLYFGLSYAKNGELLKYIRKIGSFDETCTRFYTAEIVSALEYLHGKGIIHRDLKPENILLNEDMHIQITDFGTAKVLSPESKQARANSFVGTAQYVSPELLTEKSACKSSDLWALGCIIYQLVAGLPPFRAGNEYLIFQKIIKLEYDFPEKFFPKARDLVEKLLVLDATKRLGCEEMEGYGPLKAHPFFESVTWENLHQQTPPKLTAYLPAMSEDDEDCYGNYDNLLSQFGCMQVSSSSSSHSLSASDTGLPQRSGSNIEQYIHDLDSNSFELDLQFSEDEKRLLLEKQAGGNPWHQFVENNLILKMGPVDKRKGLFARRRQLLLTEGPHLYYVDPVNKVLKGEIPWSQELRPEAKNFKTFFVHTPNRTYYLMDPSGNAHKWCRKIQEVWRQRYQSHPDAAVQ
Method: (§1) C. Activation of the indicated forms of PDK1 by 56K-pHM and S6K-HM. PDK1 activity was measured using the peptide substrate (T308tide) in the presence of the indicated concentrations of 56K-pHM (closed circles) and S6K-HM (open circles) as described in the methods. Assays were performed in triplicate and similar results obtained in 2 separate experiments. The results are the average—SD for a single experiment.
(§2) The ability of wild type and mutant PDK1 to phosphorylate the synthetic peptide T308tide ([…] ([Biondi et al., 2000]) (SEQ ID NO:108) was carried out in 30 μl assays containing 100 ng of wild type or mutant PDK1, 50 mM Tris/HCl pH 7.5, 0.1% 13-mercaptoethanol, 10 mM MgCl2, 100 μM [32γ P]ATP (200 cpm/pmol), 0.5 μM microcystin-LR, 1 mM T308tide in the presence or absence of the indicated concentrations of the 56K-pHM peptide ([…](P)YVAPSV) (SEQ ID NO:104) or 56K-HM. peptide ([…]) (SEQ ID NO:105). After incubation for 10 min at 30° C., 25 μl of the resultant mixture was spotted into P81 phosphocellulose paper (2×2 cm) and the papers washed and analysed as described previously for assays of MAP kinase. Control assays were carried out in parallel in which either PDK1, or peptide substrate were omitted; these values were always less than 5% of the activity measured in the presence of these reagents. […]

PDK1[Q150A] = molecular target: T2, PDK1[Q150A] (Homo sapiens, UniProt O15530, Q150A); assay: PDK1 catalytic activity towards T308tide, activation by peptides, PDK1[Q150A]; type: biochemical; design: made in house
T2 sequence (O15530 1-556 Q150A): T1 sequence (O15530 1-556) with Q150A
Method: as §1, §2

## CC(C)C[C@H](NC(=O)[C@H](Cc1ccccc1)NC(=O)[C@@H](NC(=O)[C@H](CCC(N)=O)NC(=O)[C@H](CC(N)=O)NC(=O)[C@H](C)NC(=O)[C@H](CO)NC(=O)[C@H](CCC(=O)O)NC(=O)[C@@H](N)CO)C(C)C)C(=O)NCC(=O)N[C@@H](Cc1ccccc1)C(=O)N[C@H](C(=O)N[C@@H](Cc1ccc(O)cc1)C(=O)N[C@H](C(=O)N[C@@H](C)C(=O)N1CCC[C@H]1C(=O)N[C@@H](CO)C(=O)N[C@H](C(=O)O)C(C)C)C(C)C)[C@@H](C)OP(=O)(O)O [S6K-pHM] (H-SESANQVFLGF[pT]YVAPSV-OH; N-terminus and C-terminus assumed)
Wild type PDK1
  maximal activation of PDK1: 5 fold
PDK1[Q150A]; peptide 0.3 and 1 mM
  activation of PDK1[Q150A]: 2-3 fold
PDK1[Q150A]; peptide below 0.1 mM
  activation of PDK1[Q150A]: not significantly activated
